Experiment [1] deals with T1, Myosin-IIIb (Homo sapiens) (UniProt Q8WXR4).
T1 sequence (whole entry): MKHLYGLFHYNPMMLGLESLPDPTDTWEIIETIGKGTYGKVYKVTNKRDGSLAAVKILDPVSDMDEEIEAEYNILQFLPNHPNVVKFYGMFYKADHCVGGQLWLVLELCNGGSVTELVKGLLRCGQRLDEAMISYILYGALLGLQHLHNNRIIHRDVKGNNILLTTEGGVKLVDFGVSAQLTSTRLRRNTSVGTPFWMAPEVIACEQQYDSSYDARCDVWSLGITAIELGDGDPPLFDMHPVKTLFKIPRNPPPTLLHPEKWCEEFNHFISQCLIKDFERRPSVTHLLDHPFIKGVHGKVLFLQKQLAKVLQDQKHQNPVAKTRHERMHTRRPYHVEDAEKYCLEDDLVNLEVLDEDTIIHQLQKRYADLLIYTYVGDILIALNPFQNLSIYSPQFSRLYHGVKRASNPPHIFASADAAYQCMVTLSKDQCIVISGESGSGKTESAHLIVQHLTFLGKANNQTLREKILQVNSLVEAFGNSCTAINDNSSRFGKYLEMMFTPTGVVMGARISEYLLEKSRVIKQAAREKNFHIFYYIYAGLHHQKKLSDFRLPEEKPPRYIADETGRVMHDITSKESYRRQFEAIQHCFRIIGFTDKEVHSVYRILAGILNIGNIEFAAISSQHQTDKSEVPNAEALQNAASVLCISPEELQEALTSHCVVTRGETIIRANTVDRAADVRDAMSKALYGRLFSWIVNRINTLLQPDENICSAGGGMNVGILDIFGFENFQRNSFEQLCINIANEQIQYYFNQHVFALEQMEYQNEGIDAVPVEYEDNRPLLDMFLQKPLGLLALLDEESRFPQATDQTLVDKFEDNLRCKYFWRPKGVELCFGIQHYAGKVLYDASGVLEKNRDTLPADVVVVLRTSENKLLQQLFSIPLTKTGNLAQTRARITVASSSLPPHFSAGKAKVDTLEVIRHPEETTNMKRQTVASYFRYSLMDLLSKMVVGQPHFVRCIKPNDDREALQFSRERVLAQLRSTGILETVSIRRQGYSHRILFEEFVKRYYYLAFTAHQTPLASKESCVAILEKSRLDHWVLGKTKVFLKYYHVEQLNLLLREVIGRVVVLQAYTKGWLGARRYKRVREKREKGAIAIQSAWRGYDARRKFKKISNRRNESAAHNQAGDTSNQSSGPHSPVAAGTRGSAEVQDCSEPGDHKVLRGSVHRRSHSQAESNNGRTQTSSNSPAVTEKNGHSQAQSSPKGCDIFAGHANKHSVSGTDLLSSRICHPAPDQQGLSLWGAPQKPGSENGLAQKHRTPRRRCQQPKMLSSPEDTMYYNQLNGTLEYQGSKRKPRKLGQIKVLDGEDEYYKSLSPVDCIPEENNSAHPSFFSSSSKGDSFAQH
Nature of the experiment: Selectivity interaction (KinomeScan (DiscoverX)) EUB0000695a MYO3B. The note with it: at 100 nM.

In experiment [2] the target is T2, Ephrin type-B receptor 2 (Homo sapiens) (UniProt P29323).
T2 sequence (whole entry): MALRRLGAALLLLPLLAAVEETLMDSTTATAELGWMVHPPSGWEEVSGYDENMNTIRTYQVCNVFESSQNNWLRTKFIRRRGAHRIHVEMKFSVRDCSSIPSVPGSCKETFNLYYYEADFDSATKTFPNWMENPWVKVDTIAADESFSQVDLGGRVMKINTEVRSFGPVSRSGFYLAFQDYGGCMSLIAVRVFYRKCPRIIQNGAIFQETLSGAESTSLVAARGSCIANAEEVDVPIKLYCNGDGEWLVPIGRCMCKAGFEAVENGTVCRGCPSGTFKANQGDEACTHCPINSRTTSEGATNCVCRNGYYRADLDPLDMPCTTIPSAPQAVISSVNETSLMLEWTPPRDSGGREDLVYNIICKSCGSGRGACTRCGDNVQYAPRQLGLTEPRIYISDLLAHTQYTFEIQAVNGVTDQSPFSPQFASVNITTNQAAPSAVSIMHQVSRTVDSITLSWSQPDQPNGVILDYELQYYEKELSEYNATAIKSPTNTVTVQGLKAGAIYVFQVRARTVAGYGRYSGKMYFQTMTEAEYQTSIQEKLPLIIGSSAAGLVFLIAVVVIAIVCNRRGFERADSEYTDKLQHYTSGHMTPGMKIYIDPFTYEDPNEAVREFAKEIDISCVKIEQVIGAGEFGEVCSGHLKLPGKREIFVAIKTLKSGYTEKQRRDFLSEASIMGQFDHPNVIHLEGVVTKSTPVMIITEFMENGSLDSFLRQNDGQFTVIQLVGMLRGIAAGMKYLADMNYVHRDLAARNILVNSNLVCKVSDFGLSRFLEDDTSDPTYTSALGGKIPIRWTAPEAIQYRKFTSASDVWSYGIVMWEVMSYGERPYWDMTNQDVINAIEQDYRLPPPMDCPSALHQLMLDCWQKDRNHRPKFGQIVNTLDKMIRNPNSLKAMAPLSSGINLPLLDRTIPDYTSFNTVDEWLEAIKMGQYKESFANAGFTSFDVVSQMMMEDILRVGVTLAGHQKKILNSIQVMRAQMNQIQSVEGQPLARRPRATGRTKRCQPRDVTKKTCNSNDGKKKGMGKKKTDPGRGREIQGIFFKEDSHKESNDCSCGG
The experiment can be described thus: Selectivity interaction (KinomeScan (DiscoverX)) EUB0000666a EPHB2. The note with it: at 10 µM.

Experiment [3] concerns the target Vasopressin V1a receptor (Homo sapiens) (UniProt P37288). Nature of the experiment: Selectivity interaction (Panel of non-epigenetic targets (kinases, GPCRs, ion channels, and transporters, Eurofins) ) EUB0000271b AVPR1A. Particulars: at 1 µM.
In experiment [4] the target is Neuronal acetylcholine receptor; alpha4/beta2 (Homo sapiens) (UniProt P17787+P43681). Nature of the experiment: Selectivity interaction (Panel of non-epigenetic targets (kinases, GPCRs, ion channels, and transporters, Eurofins) ) EUB0000271b CHRNA4. The format is protein-complex assay. The note with it: at 1 µM.
In experiment [5] the target is Mitogen-activated protein kinase kinase kinase 9 (Homo sapiens) (UniProt P80192). Nature of the experiment: Selectivity interaction (KinomeScan (DiscoverX)) EUB0001079a MAP3K9. Particulars: at 1 µM.
Experiment [6] addresses Serine/threonine-protein kinase MRCK beta (Homo sapiens) (UniProt Q9Y5S2). The experiment can be described thus: Selectivity interaction (KinomeScan (DiscoverX)) EUB0001079a CDC42BPB. The note with it: at 1 µM.
Experiment [7] addresses Serine/threonine-protein kinase 35 (Homo sapiens) (UniProt Q8TDR2). Nature of the experiment: Selectivity interaction (KinomeScan (DiscoverX)) EUB0000229b STK35. The note with it: at 10 µM.

Each structure is given as a SMILES string.

Sequence of Vasopressin V1a receptor (Homo sapiens) (P37288 whole entry, looked up): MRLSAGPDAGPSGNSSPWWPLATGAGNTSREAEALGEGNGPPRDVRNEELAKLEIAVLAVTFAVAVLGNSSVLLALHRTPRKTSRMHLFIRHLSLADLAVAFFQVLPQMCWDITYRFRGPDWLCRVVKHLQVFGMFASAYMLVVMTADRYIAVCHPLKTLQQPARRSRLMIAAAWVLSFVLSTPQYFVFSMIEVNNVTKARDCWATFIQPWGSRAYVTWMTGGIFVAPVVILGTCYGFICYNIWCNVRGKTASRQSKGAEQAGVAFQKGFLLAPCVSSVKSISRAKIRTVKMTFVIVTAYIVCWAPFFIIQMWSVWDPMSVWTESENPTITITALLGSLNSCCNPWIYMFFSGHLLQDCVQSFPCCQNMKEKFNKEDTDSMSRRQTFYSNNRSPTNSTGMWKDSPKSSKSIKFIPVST
Sequence of Mitogen-activated protein kinase kinase kinase 9 (Homo sapiens) (P80192 whole entry, looked up): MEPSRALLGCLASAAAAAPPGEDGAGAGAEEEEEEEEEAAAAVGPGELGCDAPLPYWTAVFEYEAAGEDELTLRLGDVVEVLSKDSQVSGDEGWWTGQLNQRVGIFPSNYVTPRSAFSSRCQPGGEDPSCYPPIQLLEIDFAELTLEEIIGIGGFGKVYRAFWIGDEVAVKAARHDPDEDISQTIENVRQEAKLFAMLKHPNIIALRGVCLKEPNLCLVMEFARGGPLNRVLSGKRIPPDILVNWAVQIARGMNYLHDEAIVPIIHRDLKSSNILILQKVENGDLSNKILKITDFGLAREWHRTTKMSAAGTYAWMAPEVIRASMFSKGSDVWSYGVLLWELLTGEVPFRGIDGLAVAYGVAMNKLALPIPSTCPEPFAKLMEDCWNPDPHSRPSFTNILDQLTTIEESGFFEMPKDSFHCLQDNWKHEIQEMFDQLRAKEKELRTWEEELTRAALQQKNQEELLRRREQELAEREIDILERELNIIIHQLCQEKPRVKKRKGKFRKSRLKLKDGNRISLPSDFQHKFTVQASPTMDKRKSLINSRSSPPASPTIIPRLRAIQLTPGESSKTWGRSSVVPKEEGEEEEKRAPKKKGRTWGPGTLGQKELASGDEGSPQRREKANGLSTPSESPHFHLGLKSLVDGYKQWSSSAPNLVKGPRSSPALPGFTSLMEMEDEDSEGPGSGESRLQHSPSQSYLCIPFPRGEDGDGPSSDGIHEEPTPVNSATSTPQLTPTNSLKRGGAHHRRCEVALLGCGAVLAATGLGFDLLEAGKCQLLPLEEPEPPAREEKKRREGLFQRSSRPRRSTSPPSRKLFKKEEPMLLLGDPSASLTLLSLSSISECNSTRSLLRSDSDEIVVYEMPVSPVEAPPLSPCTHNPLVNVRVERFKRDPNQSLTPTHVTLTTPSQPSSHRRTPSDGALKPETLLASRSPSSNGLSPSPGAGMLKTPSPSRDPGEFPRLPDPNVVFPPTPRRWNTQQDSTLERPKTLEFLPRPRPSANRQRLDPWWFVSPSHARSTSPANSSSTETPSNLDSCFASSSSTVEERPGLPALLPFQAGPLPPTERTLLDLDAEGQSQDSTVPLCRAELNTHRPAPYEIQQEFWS
Sequence of Serine/threonine-protein kinase MRCK beta (Homo sapiens) (Q9Y5S2 whole entry): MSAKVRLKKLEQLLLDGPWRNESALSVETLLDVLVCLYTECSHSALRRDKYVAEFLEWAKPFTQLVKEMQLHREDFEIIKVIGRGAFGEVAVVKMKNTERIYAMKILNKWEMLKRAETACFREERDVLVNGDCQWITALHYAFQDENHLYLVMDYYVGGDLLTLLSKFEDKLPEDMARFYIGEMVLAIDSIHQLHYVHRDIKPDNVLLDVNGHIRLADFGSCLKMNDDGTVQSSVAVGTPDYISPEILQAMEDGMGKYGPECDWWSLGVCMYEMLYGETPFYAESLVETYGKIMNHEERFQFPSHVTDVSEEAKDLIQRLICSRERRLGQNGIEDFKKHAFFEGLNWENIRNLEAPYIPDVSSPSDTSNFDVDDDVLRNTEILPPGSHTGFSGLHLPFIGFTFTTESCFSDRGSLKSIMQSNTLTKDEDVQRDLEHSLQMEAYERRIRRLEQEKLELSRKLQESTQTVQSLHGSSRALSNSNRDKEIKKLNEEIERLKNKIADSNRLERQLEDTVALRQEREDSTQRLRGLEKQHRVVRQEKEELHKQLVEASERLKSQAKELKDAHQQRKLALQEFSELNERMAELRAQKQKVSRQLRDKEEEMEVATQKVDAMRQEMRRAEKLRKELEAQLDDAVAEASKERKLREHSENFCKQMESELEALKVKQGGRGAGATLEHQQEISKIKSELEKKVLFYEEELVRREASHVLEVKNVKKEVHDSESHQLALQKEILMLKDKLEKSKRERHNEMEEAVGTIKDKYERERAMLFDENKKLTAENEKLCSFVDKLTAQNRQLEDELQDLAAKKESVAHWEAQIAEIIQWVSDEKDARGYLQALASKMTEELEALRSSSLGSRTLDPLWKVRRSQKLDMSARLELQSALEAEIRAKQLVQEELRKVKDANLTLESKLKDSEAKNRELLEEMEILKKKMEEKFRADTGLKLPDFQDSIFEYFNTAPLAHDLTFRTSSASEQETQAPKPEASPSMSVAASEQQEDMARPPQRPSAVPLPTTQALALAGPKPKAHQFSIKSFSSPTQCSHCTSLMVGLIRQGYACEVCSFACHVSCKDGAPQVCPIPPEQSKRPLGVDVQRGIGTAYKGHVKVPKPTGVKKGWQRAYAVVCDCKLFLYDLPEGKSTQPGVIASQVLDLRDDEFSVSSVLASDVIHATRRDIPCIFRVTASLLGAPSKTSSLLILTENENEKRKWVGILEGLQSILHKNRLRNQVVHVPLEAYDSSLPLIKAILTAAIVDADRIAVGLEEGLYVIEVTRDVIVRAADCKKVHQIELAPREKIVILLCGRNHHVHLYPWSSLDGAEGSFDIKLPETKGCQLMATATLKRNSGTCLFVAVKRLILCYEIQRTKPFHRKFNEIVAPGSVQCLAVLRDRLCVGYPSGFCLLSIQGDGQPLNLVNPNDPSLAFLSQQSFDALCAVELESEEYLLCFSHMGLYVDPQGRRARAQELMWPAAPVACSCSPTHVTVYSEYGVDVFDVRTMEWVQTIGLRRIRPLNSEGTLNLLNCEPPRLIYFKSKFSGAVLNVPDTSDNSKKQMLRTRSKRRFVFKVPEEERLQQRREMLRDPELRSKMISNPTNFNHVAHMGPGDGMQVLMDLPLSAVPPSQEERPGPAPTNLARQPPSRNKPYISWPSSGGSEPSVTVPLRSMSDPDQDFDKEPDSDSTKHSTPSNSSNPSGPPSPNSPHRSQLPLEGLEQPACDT
Sequence of Serine/threonine-protein kinase 35 (Homo sapiens) (Q8TDR2 whole entry): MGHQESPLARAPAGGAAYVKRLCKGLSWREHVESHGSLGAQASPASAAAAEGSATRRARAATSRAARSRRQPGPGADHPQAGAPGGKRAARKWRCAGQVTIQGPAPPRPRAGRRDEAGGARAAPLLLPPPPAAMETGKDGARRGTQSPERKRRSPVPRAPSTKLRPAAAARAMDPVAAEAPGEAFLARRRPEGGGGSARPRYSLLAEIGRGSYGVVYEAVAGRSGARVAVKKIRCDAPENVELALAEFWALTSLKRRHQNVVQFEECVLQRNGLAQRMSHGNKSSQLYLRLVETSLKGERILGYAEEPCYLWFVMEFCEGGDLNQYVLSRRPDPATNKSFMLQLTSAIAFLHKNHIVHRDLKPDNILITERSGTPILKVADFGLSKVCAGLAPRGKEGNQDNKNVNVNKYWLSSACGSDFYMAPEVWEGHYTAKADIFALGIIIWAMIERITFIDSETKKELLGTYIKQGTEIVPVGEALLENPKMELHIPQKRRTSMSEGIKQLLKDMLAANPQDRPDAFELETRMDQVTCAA

The compound `Cc1cc(F)c(C(=O)Nc2cccc(-c3nncn3C(C)C)n2)cc1-n1cnc(C2CC2)c1` registered a % of control in experiment [1] of 80%. In experiment [2], `O=C(NOC[C@H](O)CO)c1ccc(F)c(F)c1Nc1ccc(I)cc1F` came in with a % of control of 73%.

With `Cc1cc(C)cc([C@@H]2c3cc(C)ccc3NC(=O)CN2C(=O)c2ccc(Br)s2)c1`, the % of inhibition was -5% in experiment [3] and -18% in experiment [4]. Consider `Nc1cnc(N2CCc3cc(S(=O)(=O)Nc4c(F)cc(Cl)cc4F)cc(N4CCCC4=O)c32)nc1` [TP-020n], for which the % of control turned out to be 100% in experiment [5] and 95% in experiment [6].

In experiment [7], `COc1cc(N(C)c2ccnc3ccc(C(F)(F)F)cc23)cc(OC)c1OC` registered a % binding of 90%.

For the origin of these results see ChEMBL document CHEMBL5465560, “Selectivity Literature for EUbOPEN Chemogenomic Library” (2024).
